Experimental data reported in patent US12139503B2, “Borylated amino acid compositions for use in boron neutron capture therapy and methods thereof” (TAE Life Sciences, priority 2020, dated 2024).
Where two headings read alike, the source gives them in different places. Each block holds one compound with its values, some of them ahead of it.

Assays:
[1] = test system: FaDu nasopharnygeal squamous carcinoma cells; experiment: Kinetic parameters of boron uptake in FaDu cells (ICP-OES); format: cell-based, human; conditions: Michaelis-Menton non-linear regression
From the text: To investigate the ability of TLS00192 to deliver boron to FaDu nasopharnygeal squamous carcinoma cells, we interrogated a range of concentrations bracketing what is hypothsized to be physiologically relevant amounts for boronophenylalanine (BPA), currently the most widely studied boron drug in BNCT clinical practice.
The FaDu cell line is a human nasopharyngeal carcinoma cell line. The cell line was obtained from the American Type Culture Collection (“ATCC”), located at 10801 University Boulevard Manassas, VA 20110-2209 USA in 2019. It has ATCC designation of HTB-43™ and lot number 70014320. […]
Additionally, boron measurement was performed by ICP OES. on an Agilent 5110 ICP-OES. The data was analyzed using Agilent's ICP Expert Software, version 7.4.2.10790. Boron was measured axially at the 249.772 nm wavelength and the internal standard Beryllium was measured axially at the 313.042 nm wavelength. […]
To determine the kinetic parameters of TLS00192, Boron compounds were added to FaDu cells at the final concentration of 2.5 mM in HBSS and the cells were incubated at 37° C., in a humidified 5% CO2 atmosphere for two (2) hrs with shaking. Following two (2) hour incubation, cells were harvested and suspended in ice cold PBS and lysed in RIPA buffer and protein content determined by BCA assay. […] Results were expressed as ng boron/per mg cell protein/per minute. […]

FaDu cells [2] = experiment: Cellular retention of TLS00192 and BPA-fructose in FaDu cells; format: cell-based, human; conditions: sixteen (16) hours after initial 2 hour incubation
From the text: (§1) The FaDu cell line is a human nasopharyngeal carcinoma cell line. The cell line was obtained from the American Type Culture Collection (“ATCC”), located at 10801 University Boulevard Manassas, VA 20110-2209 USA in 2019. It has ATCC designation of HTB-43™ and lot number 70014320. FaDu cells are propagated in DMEM culture medium supplemented with 10% fetal bovine serum with routine passage by trypsinization and reseeding. The cell line is cryopreserved in liquid nitrogen.
(§2) Additionally, boron measurement was performed by ICP OES. on an Agilent 5110 ICP-OES. The data was analyzed using Agilent's ICP Expert Software, version 7.4.2.10790. Boron was measured axially at the 249.772 nm wavelength and the internal standard Beryllium was measured axially at the 313.042 nm wavelength. Beryllium internal standard was spiked into the solution at 1:5 the flowrate before introduction to the spray chamber via a T-connector. Finally, A standard curve using 1000, 100, 10, 1 and 0 ppb of boron was used to calculate the concentration of boron in each sample.
Subsequently, to determine whether the efflux mediated by either LAT1 or LAT2 or other transporters is equal for BPA-fructose relative to TLS00192 in cellular retention tests in FaDu cells. […] Data is expressed as % residual boron content of time zero amount.

intracranial tumor = conditions: BNCT with beam directed to surgically exposed intracranial tumor; cited from earlier work
FaDu cells [3] = experiment: Boron uptake of TLS00190 and TLS00178 in FaDu cells; format: cell-based, human; conditions: two (2) hour incubation
From the text: as §1
as §2, with “Finally, A standard curve using 1000, 100, 10, 1 and 0 ppb of boron was used to calculate the concentration of boron in each sample.” left out
The efficiency of boron uptake of TLS00190 and TLS00178 was determined using FaDu cells. Following a two (2) hour incubation, cells were harvested and suspended in ice cold PBS and a portion was lysed in RIPA buffer and protein content determined by BCA assay. […] After two (2) hours of incubation the amount of the compounds taken up was determined based on the boron measurements.

FaDu cells [4] = experiment: Cellular retention of TLS00190, TLS00178 and BPA-Fructose in FaDu cells; format: cell-based, human
Description: Subsequently, to determine whether the efflux mediated by either LAT1 or LAT2 or other transporters is equal for BPA-fructose relative to TLS00192 in cellular retention tests in FaDu cells. The “time zero” sample was immediately harvested following an initial two (2) hour incubation with the compounds. Cells were then harvested at indicated times and subjected to lysis, boron measurement, and protein content. Data is expressed as % residual boron content of time zero amount. In addition, the retention of TLS00190 and TLS00178 following initial 2 hour uptake compared to BPA-Fructose was also studied in FaDu cells.

LAT-1 = molecular target: T1, LAT-1 (Homo sapiens, UniProt Q01650); experiment: LAT-1 mediated competition studies, boron uptake in FaDu cells; format: cell-based; conditions: HBSS, 2 hours, 37° C.
T1 construct: host or cells: FaDu human nasopharyngeal carcinoma cells
T1 sequence (Q01650 whole entry): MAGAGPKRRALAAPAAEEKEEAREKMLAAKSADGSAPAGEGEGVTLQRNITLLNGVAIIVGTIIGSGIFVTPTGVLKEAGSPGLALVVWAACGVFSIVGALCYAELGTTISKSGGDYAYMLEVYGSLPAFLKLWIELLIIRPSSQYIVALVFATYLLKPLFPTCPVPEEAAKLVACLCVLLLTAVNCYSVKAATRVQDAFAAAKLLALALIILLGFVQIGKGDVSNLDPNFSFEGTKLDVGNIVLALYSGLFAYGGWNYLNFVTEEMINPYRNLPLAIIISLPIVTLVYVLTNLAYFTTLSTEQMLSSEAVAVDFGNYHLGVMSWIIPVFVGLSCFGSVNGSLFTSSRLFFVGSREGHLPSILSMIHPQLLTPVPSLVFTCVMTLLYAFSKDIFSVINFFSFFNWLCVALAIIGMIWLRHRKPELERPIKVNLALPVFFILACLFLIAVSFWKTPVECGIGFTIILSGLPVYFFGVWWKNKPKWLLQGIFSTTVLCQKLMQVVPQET
T1 sequence (P08195 102-630 partner): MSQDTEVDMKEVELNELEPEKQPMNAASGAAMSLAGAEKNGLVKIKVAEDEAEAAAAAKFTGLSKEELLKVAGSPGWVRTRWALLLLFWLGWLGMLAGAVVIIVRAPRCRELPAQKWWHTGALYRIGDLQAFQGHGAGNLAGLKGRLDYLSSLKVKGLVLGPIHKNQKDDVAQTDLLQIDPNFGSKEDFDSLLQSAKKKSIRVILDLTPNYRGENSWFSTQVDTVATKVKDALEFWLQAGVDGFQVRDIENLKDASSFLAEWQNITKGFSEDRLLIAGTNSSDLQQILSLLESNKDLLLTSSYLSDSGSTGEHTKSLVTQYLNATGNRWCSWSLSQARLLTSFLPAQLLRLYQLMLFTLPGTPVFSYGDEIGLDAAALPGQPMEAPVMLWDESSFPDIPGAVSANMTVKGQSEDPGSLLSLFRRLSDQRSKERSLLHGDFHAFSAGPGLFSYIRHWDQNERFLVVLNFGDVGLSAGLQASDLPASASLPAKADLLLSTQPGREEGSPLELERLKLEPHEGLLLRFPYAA
From the text: as §1, §2
It has been shown that the system L transporter (LAT-1) mediates the transport of L-amino acids into cells and plays a major role in the uptake of BPA in BPA-based BNCT (WONGTHAI, et. al. Cancer Sci Vol. 106, pg. 279-286, 2015). To assess whether TLS00192 is transported via LAT-1 dependent mechanism we interrogated its ability to be outcompeted by the LAT1 substrate L-Phe FaDu cells were incubated in HBSS medium for two (2) hours at 37° C. with 0.5 mM of either TLS00192 or BPA-fructose in the absence (Subset A) or presence of increasing concentrations of competitor Phe (Subset B), L-system antagonist BCH (Subset C) or LAT-1 specific inhibitor JPH203 (Subset D). The cells were harvested, and the amount of each boronated cell associated compound was determined by ICP OES. The IC50s for the respective inhibitor on each compound is also indicated. BPA was used as a positive control for LAT-1-mediated uptake.

[5] = twenty (20) hrs after initial 2 hour uptake
[6] = 0.5 mM BPA-fructose as substrate, read-out: IC50 of competitor on boron uptake of BPA-Fructose
[7] = 0.5 mM TLS00192 as substrate, read-out: IC50 of competitor on boron uptake of TLS00192

Compound: N[C@@H](Cc1ccc(O)c(B(O)O)c1)C(=O)O [TLS00192]
Km ([1]; 2 hr incubation in HBSS at 37° C.): 1970 µM
apparent Vmax ([1]; 2 hr incubation): 15.87 ng boron mg^−1 min^−1
% residual boron content of time zero amount (FaDu cells [2]): greater than 40%

Compound: undecahydrododecaborane thiol [BSH]
5-year survival rate (intracranial tumor): 58%

Compound: N[C@@H](Cc1ccc(B(O)O)cc1)C(=O)O [BPA, 4-Borono-L-phenylalanine]
% residual boron content of time zero amount (FaDu cells [2]): approximately 10%

Compound: COCCOCCOc1ccc(C[C@H](N)C(=O)O)cc1 [TLS00190]
boron uptake (ng boron per mg protein), result in words (FaDu cells [3]): retain the ability to be transported into FaDu cancer cells
retention, cellular level remaining (FaDu cells [4]; [5]): 43%
retention, cellular level remaining (FaDu cells [4]; two (2) hours after initial 2 hour uptake): 14%

IC50 (LAT-1; [6]): 40 µM
IC50 (LAT-1; [7]): 430 µM
Compound: N[C@@H](Cc1ccccc1)C(=O)O [L-Phe, phenylalanine]

IC50 (LAT-1; 0.5 mM BPA-fructose as substrate, read-out: IC50 of inhibitor on LAT1-mediated uptake of BPA): 0.78 µM
IC50 (LAT-1; 0.5 mM TLS00192 as substrate, read-out: IC50 of inhibitor on LAT1-mediated uptake of TLS00192): 0.19 µM
Compound: Nc1cc(COc2c(Cl)cc(C[C@H](N)C(=O)O)cc2Cl)c2oc(-c3ccccc3)nc2c1 [JPH203]

Compound: CNC(=O)[C@@H](N)Cc1c[nH]cn1 [TLS00178]
boron uptake (ng boron per mg protein), result in words (FaDu cells [3]): retain the ability to be transported into FaDu cancer cells
retention, cellular level remaining (FaDu cells [4]; [5]): 57%

IC50 (LAT-1; [6]): 140 µM
IC50 (LAT-1; [7]): 800 µM
Compound: NC1(C(=O)O)CC2CCC1C2 (stereo not shown) [BCH, 2-aminobicyclo-(2,2,1)-heptane-2-carboxylic acid]
